For orientation: AC50 means the concentration giving half of the maximal activity seen.

Results on 23 compounds are retold here after ChEMBL document CHEMBL5291721, “A preclinical secondary pharmacology resource illuminates target-adverse drug reaction associations of marketed drugs” (Nat Commun, 2023).

Some targets named below: Histamine H3 receptor (Homo sapiens, UniProt Q9Y5N1); Mu-type opioid receptor (Homo sapiens, UniProt P35372); D(3) dopamine receptor (Homo sapiens, UniProt P35462).
Assay [1] deals with T1, Progesterone receptor (Homo sapiens, UniProt P06401).
T1 sequence (P06401 whole entry): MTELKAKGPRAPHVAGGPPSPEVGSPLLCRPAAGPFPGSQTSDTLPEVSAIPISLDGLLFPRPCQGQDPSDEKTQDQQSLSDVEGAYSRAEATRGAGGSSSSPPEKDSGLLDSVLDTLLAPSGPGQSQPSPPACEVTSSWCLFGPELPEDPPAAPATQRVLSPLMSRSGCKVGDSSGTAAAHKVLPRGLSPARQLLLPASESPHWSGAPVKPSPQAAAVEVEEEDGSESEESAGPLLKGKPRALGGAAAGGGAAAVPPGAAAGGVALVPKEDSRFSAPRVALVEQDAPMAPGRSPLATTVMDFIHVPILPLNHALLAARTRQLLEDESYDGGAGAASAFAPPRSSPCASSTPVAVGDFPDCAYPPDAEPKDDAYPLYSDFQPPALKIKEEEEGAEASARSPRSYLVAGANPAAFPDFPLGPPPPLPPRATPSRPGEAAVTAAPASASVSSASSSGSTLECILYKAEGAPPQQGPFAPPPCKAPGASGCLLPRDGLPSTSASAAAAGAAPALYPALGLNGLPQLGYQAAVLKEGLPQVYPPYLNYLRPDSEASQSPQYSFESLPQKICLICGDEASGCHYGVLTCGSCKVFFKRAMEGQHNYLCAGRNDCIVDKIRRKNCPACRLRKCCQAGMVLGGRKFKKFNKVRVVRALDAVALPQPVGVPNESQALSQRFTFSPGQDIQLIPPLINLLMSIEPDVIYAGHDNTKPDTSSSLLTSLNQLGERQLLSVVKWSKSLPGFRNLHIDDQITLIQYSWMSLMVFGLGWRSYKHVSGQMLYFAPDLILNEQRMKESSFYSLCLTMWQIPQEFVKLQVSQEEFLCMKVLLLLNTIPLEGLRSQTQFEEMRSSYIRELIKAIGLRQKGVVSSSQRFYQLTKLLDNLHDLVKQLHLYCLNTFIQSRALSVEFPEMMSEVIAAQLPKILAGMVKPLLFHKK
Format: functional.

Assay [2] concerns the target Muscarinic acetylcholine receptor M3 (Homo sapiens, UniProt P20309).
Assay [3] has as its target T2, 5-hydroxytryptamine receptor 1A (Homo sapiens, UniProt P08908).
T2 sequence (P08908 whole entry): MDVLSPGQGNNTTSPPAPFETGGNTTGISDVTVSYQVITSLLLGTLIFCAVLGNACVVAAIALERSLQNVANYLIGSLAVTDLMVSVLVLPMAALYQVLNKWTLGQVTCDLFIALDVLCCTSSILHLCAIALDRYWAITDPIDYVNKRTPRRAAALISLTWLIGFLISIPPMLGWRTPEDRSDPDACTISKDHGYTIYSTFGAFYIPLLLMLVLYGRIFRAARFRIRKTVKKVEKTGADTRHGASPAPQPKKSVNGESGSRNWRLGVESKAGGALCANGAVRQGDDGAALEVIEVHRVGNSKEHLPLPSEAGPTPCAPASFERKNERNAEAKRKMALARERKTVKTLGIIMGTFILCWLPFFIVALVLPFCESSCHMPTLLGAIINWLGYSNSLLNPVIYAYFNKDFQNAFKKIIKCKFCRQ
The format is functional, cell-based.

For assay [4], the target named is T3, Cannabinoid receptor 1 (Homo sapiens, UniProt P21554). The format is functional, cell-based.
T3 sequence (P21554 whole entry): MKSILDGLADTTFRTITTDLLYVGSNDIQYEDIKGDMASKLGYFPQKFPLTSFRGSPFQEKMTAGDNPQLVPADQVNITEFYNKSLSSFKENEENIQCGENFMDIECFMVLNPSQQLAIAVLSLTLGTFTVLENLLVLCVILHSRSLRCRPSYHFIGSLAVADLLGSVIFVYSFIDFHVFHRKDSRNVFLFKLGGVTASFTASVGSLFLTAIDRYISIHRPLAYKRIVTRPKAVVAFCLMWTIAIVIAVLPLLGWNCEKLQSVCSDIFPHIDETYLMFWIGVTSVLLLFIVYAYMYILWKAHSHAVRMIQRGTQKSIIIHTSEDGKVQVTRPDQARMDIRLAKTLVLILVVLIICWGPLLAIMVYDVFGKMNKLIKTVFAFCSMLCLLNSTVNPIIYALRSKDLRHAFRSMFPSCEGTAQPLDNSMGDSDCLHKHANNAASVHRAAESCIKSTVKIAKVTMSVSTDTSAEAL
The target in assay [5] is T3, Cannabinoid receptor 1. The format is functional, cell-based. This is another data set of the same source.
The target in assay [6] is T1, Progesterone receptor. The format is functional. This is another data set of the same source.
Assay [7] has as its target Voltage-dependent L-type calcium channel subunit alpha-1C (Rattus norvegicus, UniProt P22002). The format is functional.
Assay [8] concerns the target Prostaglandin G/H synthase 1 (Homo sapiens, UniProt P23219). Format: functional.
For assay [9], the target named is 5-hydroxytryptamine receptor 2B (Homo sapiens, UniProt P41595). The format is functional, cell-based.
Chain of 5-hydroxytryptamine receptor 2B (P41595 whole entry): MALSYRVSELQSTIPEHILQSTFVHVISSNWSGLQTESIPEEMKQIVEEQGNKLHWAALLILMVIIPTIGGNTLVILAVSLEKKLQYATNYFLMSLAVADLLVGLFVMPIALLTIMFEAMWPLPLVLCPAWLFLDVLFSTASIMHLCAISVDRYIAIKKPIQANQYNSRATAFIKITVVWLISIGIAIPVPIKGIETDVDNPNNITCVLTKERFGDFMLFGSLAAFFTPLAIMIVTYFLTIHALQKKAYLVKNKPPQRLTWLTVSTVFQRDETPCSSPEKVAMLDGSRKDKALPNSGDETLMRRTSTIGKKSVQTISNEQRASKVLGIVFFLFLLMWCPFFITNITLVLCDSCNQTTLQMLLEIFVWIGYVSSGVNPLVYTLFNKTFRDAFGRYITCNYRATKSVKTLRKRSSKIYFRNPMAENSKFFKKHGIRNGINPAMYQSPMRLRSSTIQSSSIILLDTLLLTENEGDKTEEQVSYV
In assay [10] the target is T4, Alpha-1A adrenergic receptor (Homo sapiens, UniProt P35348).
T4 sequence (P35348 whole entry): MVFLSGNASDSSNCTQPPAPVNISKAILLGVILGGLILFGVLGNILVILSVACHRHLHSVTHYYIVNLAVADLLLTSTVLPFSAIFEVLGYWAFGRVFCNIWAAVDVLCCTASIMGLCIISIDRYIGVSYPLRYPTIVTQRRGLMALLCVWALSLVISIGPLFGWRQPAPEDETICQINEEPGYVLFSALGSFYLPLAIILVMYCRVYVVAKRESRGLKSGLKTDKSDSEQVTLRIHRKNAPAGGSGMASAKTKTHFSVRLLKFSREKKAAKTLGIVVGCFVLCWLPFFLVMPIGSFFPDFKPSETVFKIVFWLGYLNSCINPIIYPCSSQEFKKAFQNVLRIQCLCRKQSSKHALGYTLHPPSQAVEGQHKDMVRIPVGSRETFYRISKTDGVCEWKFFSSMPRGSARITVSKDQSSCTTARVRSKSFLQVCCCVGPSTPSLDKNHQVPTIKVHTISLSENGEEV
The format is functional, cell-based.
Further: assay procedure not described here.

Chain of Muscarinic acetylcholine receptor M3 (P20309 whole entry): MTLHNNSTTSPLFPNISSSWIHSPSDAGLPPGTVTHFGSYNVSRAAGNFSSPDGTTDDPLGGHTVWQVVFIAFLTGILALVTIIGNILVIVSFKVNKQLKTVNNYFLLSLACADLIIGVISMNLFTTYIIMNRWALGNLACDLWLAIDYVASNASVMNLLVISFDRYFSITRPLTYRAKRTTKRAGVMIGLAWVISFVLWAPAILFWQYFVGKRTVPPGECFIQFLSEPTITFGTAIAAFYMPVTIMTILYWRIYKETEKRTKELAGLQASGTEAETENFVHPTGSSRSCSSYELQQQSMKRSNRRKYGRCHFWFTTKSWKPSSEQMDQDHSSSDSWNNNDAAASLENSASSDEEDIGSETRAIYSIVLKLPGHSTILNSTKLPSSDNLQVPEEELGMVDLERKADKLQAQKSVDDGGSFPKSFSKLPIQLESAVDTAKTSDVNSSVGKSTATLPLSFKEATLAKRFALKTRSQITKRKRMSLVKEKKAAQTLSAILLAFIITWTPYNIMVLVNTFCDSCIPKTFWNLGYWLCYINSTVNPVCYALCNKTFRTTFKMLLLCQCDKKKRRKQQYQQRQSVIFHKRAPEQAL
Chain of Voltage-dependent L-type calcium channel subunit alpha-1C (P22002 whole entry): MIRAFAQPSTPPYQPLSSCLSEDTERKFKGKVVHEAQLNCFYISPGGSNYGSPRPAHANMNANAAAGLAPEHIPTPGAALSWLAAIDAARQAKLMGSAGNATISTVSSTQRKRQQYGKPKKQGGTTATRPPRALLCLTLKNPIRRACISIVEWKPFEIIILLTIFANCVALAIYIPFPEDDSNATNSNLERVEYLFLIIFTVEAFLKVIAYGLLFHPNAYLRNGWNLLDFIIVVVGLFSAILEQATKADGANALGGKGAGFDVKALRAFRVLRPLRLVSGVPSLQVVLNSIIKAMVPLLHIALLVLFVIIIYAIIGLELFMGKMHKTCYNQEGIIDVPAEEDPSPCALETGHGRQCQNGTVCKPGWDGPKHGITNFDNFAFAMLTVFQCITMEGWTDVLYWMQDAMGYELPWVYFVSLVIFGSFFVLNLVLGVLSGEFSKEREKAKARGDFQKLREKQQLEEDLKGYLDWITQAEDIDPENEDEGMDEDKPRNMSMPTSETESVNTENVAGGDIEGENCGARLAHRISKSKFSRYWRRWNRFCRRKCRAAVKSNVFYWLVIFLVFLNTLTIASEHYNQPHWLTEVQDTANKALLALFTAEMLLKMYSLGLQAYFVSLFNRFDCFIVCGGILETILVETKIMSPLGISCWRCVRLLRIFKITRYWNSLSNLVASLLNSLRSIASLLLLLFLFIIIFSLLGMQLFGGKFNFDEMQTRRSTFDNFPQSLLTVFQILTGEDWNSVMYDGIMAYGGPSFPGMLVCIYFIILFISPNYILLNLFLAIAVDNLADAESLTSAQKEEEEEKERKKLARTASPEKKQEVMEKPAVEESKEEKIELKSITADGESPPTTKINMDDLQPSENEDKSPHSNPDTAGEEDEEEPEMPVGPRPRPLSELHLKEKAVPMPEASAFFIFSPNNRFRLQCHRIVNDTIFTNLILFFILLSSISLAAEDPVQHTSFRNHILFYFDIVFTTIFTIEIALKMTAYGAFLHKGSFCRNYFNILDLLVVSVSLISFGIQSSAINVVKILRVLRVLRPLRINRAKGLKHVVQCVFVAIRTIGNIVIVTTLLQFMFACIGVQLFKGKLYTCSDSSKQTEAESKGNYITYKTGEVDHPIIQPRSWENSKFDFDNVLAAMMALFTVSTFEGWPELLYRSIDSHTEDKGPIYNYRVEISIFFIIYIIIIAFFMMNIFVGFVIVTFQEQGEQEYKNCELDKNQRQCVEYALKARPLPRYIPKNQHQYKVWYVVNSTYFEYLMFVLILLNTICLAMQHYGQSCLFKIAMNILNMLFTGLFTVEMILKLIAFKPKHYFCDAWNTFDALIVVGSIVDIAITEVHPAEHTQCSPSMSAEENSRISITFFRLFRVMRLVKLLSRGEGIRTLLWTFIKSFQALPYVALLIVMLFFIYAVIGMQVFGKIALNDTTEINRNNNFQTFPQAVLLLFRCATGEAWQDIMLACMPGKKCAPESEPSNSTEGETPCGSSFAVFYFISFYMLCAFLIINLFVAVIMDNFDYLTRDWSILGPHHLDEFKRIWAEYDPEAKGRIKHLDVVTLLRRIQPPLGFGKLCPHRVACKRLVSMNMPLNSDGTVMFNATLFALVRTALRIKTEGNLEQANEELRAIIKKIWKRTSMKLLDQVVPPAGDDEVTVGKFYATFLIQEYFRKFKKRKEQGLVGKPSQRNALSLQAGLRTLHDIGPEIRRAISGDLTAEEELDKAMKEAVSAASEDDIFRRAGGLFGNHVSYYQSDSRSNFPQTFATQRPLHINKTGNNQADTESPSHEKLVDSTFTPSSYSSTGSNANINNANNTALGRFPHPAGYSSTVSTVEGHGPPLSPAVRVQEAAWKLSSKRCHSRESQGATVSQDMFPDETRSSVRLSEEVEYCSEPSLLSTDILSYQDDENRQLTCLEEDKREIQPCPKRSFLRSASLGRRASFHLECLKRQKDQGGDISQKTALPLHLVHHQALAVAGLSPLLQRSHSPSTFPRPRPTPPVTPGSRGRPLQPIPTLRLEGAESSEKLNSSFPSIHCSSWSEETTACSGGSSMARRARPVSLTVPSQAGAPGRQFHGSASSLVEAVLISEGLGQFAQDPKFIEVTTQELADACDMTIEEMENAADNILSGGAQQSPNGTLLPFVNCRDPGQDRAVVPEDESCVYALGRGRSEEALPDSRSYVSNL
Chain of Prostaglandin G/H synthase 1 (P23219 whole entry): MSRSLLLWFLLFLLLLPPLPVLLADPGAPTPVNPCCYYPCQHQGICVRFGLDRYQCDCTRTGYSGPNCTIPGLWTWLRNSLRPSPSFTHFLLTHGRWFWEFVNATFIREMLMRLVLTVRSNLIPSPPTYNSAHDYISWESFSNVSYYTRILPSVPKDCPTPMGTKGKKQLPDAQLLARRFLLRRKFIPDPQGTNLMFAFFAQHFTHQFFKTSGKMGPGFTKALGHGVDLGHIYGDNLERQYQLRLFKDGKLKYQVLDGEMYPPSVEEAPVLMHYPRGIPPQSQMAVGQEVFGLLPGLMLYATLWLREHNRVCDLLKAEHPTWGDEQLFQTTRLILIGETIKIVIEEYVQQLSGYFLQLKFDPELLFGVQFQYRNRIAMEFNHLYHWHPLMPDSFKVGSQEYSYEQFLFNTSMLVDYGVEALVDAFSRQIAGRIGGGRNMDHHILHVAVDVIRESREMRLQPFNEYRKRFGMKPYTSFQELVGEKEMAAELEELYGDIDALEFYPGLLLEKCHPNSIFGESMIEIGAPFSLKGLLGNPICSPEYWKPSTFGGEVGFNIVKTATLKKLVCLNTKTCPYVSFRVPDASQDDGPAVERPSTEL
Chain of Mu-type opioid receptor (P35372 whole entry): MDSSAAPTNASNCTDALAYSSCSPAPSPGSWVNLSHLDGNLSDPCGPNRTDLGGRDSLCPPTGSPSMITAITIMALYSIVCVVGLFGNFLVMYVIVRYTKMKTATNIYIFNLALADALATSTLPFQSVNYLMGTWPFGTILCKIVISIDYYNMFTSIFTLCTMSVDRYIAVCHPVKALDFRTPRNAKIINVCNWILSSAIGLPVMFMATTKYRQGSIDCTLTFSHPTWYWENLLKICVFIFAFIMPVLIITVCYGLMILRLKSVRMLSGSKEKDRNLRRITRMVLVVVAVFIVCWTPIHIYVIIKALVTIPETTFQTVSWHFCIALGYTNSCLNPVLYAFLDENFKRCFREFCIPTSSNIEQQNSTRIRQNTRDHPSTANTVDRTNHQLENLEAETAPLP

Take `CN(C)CCC=C1c2ccccc2C(C)(C)c2ccccc21`: the concentration at half-maximal activity (AC50) was above 30 µM on Progesterone receptor [1]; 0.38 µM in assay [2]; above 30 µM in assay [3]; above 30 µM on Cannabinoid receptor 1 [4]; above 30 µM on Cannabinoid receptor 1 [5]; above 30 µM on Progesterone receptor [6].
On to `Nc1nc(NC2CC2)c2ncn([C@H]3C=C[C@@H](CO)C3)c2n1` [ABACAVIR], for which the concentration at half-maximal activity (AC50) (on Progesterone receptor [1]; in assay [2]; on Cannabinoid receptor 1 [4]; on Cannabinoid receptor 1 [5]; on Progesterone receptor [6]) was above 30 µM each time.
As to `CC(=O)NCCCS(=O)(=O)O` [ACAMPROSATE], the AC50 (at Progesterone receptor [1]; in assay [2]; in assay [3]; on Cannabinoid receptor 1 [4]; on Cannabinoid receptor 1 [5]; on Progesterone receptor [6]) was above 30 µM in each case.
As to `COc1cc2nc(N(C)CCCNC(=O)C3CCCO3)nc(N)c2cc1OC` (stereo unspecified) [ALFUZOSIN], the concentration at half-maximal activity (AC50) (on Progesterone receptor [1]; in [2]; in assay [7]; on Cannabinoid receptor 1 [4]; at Cannabinoid receptor 1 [5]; at Progesterone receptor [6]) was above 30 µM throughout.
For the compound `CNC(=O)c1ccccc1Sc1ccc2c(/C=C/c3ccccn3)n[nH]c2c1` [AXITINIB], the AC50 (at Progesterone receptor [1]; in [2]; in [3]; on Cannabinoid receptor 1 [4]; at Cannabinoid receptor 1 [5]; at Progesterone receptor [6]) was above 30 µM each time.
For the compound `CCc1oc2ccccc2c1C(=O)c1cc(I)c(O)c(I)c1` [BENZIODARONE], the concentration at half-maximal activity (AC50) was 8.33 µM in assay [8]; 28.3 µM at Histamine H3 receptor; 9.64 µM at Mu-type opioid receptor; above 30 µM in assay [9]; 8.59 µM at D(3) dopamine receptor.
Turning to `COCc1c(C(C)C)nc(C(C)C)c(/C=C/[C@@H](O)C[C@@H](O)CC(=O)O)c1-c1ccc(F)cc1` [CERIVASTATIN], the half-maximal activity concentration (AC50) in [8] is above 30 µM; at Histamine H3 receptor, above 30 µM; in assay [10], 25.2 µM; at Mu-type opioid receptor, above 30 µM; in [9], above 30 µM; on D(3) dopamine receptor, above 30 µM.
For `C[N+](C)(C)CCO` [CHOLINE], the half-maximal activity concentration (AC50) (in [8]; on Histamine H3 receptor; in assay [10]; at Mu-type opioid receptor; in [9]; on D(3) dopamine receptor) was above 30 µM throughout.
Consider `C[C@]12CC[C@@H]3c4ccc(O)cc4CC[C@H]3[C@@H]1C[C@@H](O)[C@@H]2O` [ESTRIOL], for which the half-maximal activity concentration (AC50) is 12 µM in assay [8]; above 30 µM at Histamine H3 receptor; above 30 µM in assay [10]; above 30 µM at Mu-type opioid receptor; above 30 µM in assay [9]; above 30 µM on D(3) dopamine receptor.
With `CCC1=C(C)CN(C(=O)NCCc2ccc(S(=O)(=O)NC(=O)N[C@H]3CC[C@H](C)CC3)cc2)C1=O` [GLIMEPIRIDE], the AC50 (in assay [8]; on Histamine H3 receptor; in assay [10]; at Mu-type opioid receptor; in [9]; on D(3) dopamine receptor) was above 30 µM throughout.
Consider `C[N+]1(C)CCC(OC(=O)C(O)(c2ccccc2)C2CCCC2)C1` (stereo unspecified) [GLYCOPYRRONIUM BROMIDE], for which the AC50 at Progesterone receptor [1] and at Progesterone receptor [6] was above 10 µM in each case.
Consider `C[C@H]1CNCCc2ccc(Cl)cc21` [LORCASERIN], for which the half-maximal activity concentration (AC50) at Progesterone receptor [1] is above 30 µM; in assay [2], above 30 µM; in assay [3] it was 4.4 µM; at Cannabinoid receptor 1 [4], 2.6 µM; on Cannabinoid receptor 1 [5] it was above 30 µM; on Progesterone receptor [6] it was above 30 µM.
For `CN1C(C(=O)Nc2ccccn2)=C(O)c2sc(Cl)cc2S1(=O)=O` [LORNOXICAM], the AC50 was above 30 µM in [2]; above 10 µM in assay [7]; above 10 µM in [3]; above 30 µM on Cannabinoid receptor 1 [4]; above 30 µM at Cannabinoid receptor 1 [5].
`CNC1Cc2ccccc2N(C)c2ccccc21` (stereo unspecified) [METAPRAMINE]: the half-maximal activity concentration (AC50) (at Progesterone receptor [1]; in [2]; in assay [3]; at Cannabinoid receptor 1 [4]; at Cannabinoid receptor 1 [5]; on Progesterone receptor [6]) was above 30 µM each time.
On to `Cc1nc([N+](=O)[O-])cn1-c1ccc([N+](=O)[O-])cc1` [NITREFAZOLE], for which the AC50 (at Progesterone receptor [1]; in assay [2]; on Cannabinoid receptor 1 [4]; on Cannabinoid receptor 1 [5]; at Progesterone receptor [6]) was above 30 µM each time.
As to `COc1ccc(CC(C)(C)NC[C@H](O)c2cc(O)cc3c2OCC(=O)N3)cc1` [OLODATEROL], the AC50 at Progesterone receptor [1] is above 30 µM; in [2] it was above 30 µM; in [3], 29 µM; at Cannabinoid receptor 1 [4], above 30 µM; at Cannabinoid receptor 1 [5], above 30 µM; on Progesterone receptor [6], above 30 µM.
In the case of `CC(C)(S)[C@@H](N)C(=O)O` [PENICILLAMINE], the AC50 (on Histamine H3 receptor; in [10]; on Mu-type opioid receptor; in [9]; at D(3) dopamine receptor) was above 30 µM in each case.
For `C1CCC(C(CC2CCCCN2)C2CCCCC2)CC1` (stereo unspecified) [PERHEXILINE], the AC50 was above 30 µM at Progesterone receptor [1]; above 3 µM in assay [3]; above 30 µM at Cannabinoid receptor 1 [4]; above 30 µM at Cannabinoid receptor 1 [5]; above 30 µM at Progesterone receptor [6].
Consider `c1cnc(N2CCN(Cc3ccc4c(c3)OCO4)CC2)nc1` [PIRIBEDIL], for which the AC50 was above 30 µM at Progesterone receptor [1]; above 30 µM in [2]; 20 µM in [3]; above 30 µM on Cannabinoid receptor 1 [4]; above 30 µM at Cannabinoid receptor 1 [5]; above 30 µM at Progesterone receptor [6].
Turning to `COc1cc(NC(C)CCCN)c2ncccc2c1` (stereo unspecified) [PRIMAQUINE], the concentration at half-maximal activity (AC50) in [8] stood at 3.95 µM; at Progesterone receptor [6], 20 µM.
For the compound `Cc1c(C(=O)NN2CCCCC2)nn(-c2ccc(Cl)cc2Cl)c1-c1ccc(Cl)cc1` [RIMONABANT], the AC50 is above 30 µM at Progesterone receptor [1]; above 30 µM in [2]; 3.19 µM in [7]; above 30 µM in assay [3]; above 30 µM at Progesterone receptor [6].
Turning to `N[C@@H]1[C@H]2CN(c3nc4c(cc3F)c(=O)c(C(=O)O)cn4-c3ccc(F)cc3F)C[C@@H]12` [TROVAFLOXACIN], the AC50 (on Progesterone receptor [1]; in assay [3]; at Cannabinoid receptor 1 [4]; on Cannabinoid receptor 1 [5]; on Progesterone receptor [6]) was above 30 µM in each case.
For the compound `CCCCCCOc1nsnc1C1=CCCN(C)C1` [XANOMELINE], the half-maximal activity concentration (AC50) in assay [8] was above 30 µM; at Histamine H3 receptor, 3.6 µM; at Mu-type opioid receptor, above 30 µM; in [9] it was above 30 µM; on D(3) dopamine receptor, 0.273 µM.
